Drawing on patent US20250304563A1, “ACTIVATORS OF EFFECTOR T CELLS” (Orum Therapeutics, Inc., priority 2022, published 2025), this text covers IC50 for 20 molecules.

The IC50 is the concentration that inhibits the measured activity by half. Higher therefore signals weaker potency in that assay.

SMILES strings stand for the structures.

In the assay the target is Cbl-b (36-427 aa truncated form, N-terminus Avi-tag) (Homo sapiens (Human), UniProt Q13191). The experiment in a line: Cbl-b binding: TR-FRET displacement of BODIPY-FL probe. On the procedure: Compounds were assessed for binding activity to Cbl-b by their ability to compete with and displace a probe comprised of BODIPY-FL fluorophore conjugated to a Cbl-b inhibitor (see Example 54 in WO2020264398). In the assay, a 36-427 aa truncated form of Cbl-b with an N-terminus Avi-tag was incubated 20 mM HEPES pH 7.5, 150 mM NaCl, 0.01% Triton X-100, 0.1% BSA, 0.5 mM TCEP buffer with streptavidin-terbium (Cisbio). After one hour of incubation at room temperature, 1 uM each of fluorescent probe and compound were combined with the reaction mixture. Compounds with Cbl-b binding activity competitively displace the fluorophore tagged inhibitor thereby disrupting the FRET signal from the terbium-BODIPY-FL complex. The reaction mixtures were incubated for one additional hour at room temperature to allow for competition between inhibitor and candidate compounds to occur. The time resolved FRET (TR-FRET) signal was then read at 520/620 […] (excitation/emission) using a Spectramax M5e plate reader (Molecular Devices) to measure probe displacement. Compounds with Cbl-b binding activity had decreased FRET signal owing to disruption of the terbium-BODIPY-FL FRET complex. Standard methods in PRISM were used to calculate the compound IC50 values from the experimental data.
Chain of Cbl-b (36-427 aa truncated form, N-terminus Avi-tag) (Q13191 36-427): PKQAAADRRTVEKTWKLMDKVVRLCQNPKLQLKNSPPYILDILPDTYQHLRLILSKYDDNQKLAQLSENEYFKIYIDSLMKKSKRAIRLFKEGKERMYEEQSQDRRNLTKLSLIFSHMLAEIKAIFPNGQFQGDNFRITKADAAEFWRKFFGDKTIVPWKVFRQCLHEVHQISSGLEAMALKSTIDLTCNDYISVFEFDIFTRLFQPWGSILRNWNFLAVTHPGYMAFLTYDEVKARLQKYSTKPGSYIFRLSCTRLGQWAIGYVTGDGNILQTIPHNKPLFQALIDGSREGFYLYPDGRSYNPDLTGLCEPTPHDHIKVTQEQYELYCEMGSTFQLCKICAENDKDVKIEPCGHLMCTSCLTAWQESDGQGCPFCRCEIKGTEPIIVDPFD
In turn, `CCNc1cc([C@]2(c3nncn3C)C[C@H](C)C2)nc(N2Cc3c(cc(CN4CCC[C@H](C)C4)cc3C(F)(F)F)C2=O)n1` [Compound 114B, 2-[4-(ethylamino)-6-[(1r,3S)-3-methyl-1-(4-methyl-1,2,4-triazol-3-yl)cyclobutyl]pyrimidin-2-yl]-6-{[(3S)-3-methylpiperidin-1-yl]methyl}-4-(trifluoromethyl)-3H-isoindol-1-one] gave an IC50 of 100 to 1000 nM. Take `C#CCN1CCN(c2cc(C3(Cc4nncn4C)COC3)cc(N3Cc4c(cc(CN5CCC[C@H](C)C5)cc4C(F)(F)F)C3=O)n2)CC1` [Compound 127, (S)-2-(4-(3-((4-methyl-4H-1,2,4-triazol-3-yl)methyl)oxetan-3-yl)-6-(4-(prop-2-yn-1-yl)piperazin-1-yl)pyridin-2-yl)-6-((3-methylpiperidin-1-yl)methyl)-4-(trifluoromethyl)isoindolin-1-one]: the IC50 was 20 to 100 nM. Next, `C[C@H]1CCCN(Cc2cc3c(c(C(F)(F)F)c2)CN(c2cc(C4(Cc5nncn5C)COC4)cc(N4CCN(CC#N)CC4)n2)C3=O)C1` [Compound 128, (S)-2-(4-(4-(3-((4-methyl-4H-1,2,4-triazol-3-yl)methyl)oxetan-3-yl)-6-(6-((3-methylpiperidin-1-yl)methyl)-1-oxo-4-(trifluoromethyl)isoindolin-2-yl)pyridin-2-yl)piperazin-1-yl)acetonitrile]: 20 to 100 nM; `Cc1cn(CCNc2cc(C3(Cc4nncn4C)COC3)cc(N3Cc4c(cc(CN5CCC[C@H](C)C5)cc4C(F)(F)F)C3=O)n2)nn1` [Compound 129, (S)-2-(6-((2-(4-methyl-1H-1,2,3-triazol-1-yl)ethyl)amino)-4-(3-((4-methyl-4H-1,2,4-triazol-3-yl)methyl)oxetan-3-yl)pyridin-2-yl)-6-((3-methylpiperidin-1-yl)methyl)-4-(trifluoromethyl)isoindolin-1-one]: 20 to 100 nM. Next, `C[C@H]1CCCN(Cc2cc3c(c(C(F)(F)F)c2)CN(c2cc(C4(Cc5nncn5C)COC4)cc(N4CCN(C(=O)Cc5nnn[nH]5)CC4)n2)C3=O)C1` [Compound 131, (S)-2-(6-(4-(2-(1H-tetrazol-5-yl)acetyl)piperazin-1-yl)-4-(3-((4-methyl-4H-1,2,4-triazol-3-yl)methyl)oxetan-3-yl)pyridin-2-yl)-6-((3-methylpiperidin-1-yl)methyl)-4-(trifluoromethyl)isoindolin-1-one]: 20 to 100 nM. `C[C@H]1CCCN(Cc2cc3c(c(C(F)(F)F)c2)CN(c2cc(C4(Cc5nncn5C)COC4)cc(N4CCN(C(=O)CN=[N+]=[N-])CC4)n2)C3=O)C1` [Compound 132, (S)-2-(6-(4-(2-azidoacetyl)piperazin-1-yl)-4-(3-((4-methyl-4H-1,2,4-triazol-3-yl)methyl)oxetan-3-yl)pyridin-2-yl)-6-((3-methylpiperidin-1-yl)methyl)-4-(trifluoromethyl)isoindolin-1-one] displayed an IC50 of 20 to 100 nM. Next, `C=CCS(=O)(=O)N1CCN(c2cc(C3(Cc4nncn4C)COC3)cc(N3Cc4c(cc(CN5CCC[C@H](C)C5)cc4C(F)(F)F)C3=O)n2)CC1` [Compound 133, (S)-2-(6-(4-(allylsulfonyl)piperazin-1-yl)-4-(3-((4-methyl-4H-1,2,4-triazol-3-yl)methyl)oxetan-3-yl)pyridin-2-yl)-6-((3-methylpiperidin-1-yl)methyl)-4-(trifluoromethyl)isoindolin-1-one]: 5.01 to 20 nM. As for `C[C@H]1CCCN(Cc2cc3c(c(C(F)(F)F)c2)CN(c2cc(C4(Cc5nncn5C)COC4)cc(N4CCNCC4)n2)C3=O)C1` [Compound 140, (S)-2-(4-(3-((4-methyl-4H-1,2,4-triazol-3-yl)methyl)oxetan-3-yl)-6-(piperazin-1-yl)pyridin-2-yl)-6-((3-methylpiperidin-1-yl)methyl)-4-(trifluoromethyl)isoindolin-1-one; trifluoro acetic acid], the figure is 5.01 to 20 nM.

Regarding `C[C@H]1CCCN(Cc2cc3c(c(C(F)(F)F)c2)CN(c2cc(C4(Cc5nncn5C)COC4)cc(NCCCC#N)n2)C3=O)C1` [Compound 143, 4-[(4-{3-[(4-methyl-1,2,4-triazol-3-yl)methyl]oxetan-3-yl}-6-(6-{[(3S)-3-methylpiperidin-1-yl]methyl}-1-oxo-4-(trifluoromethyl)-3H-isoindol-2-yl)pyridin-2-yl)amino]butanenitrile; trifluoroacetic acid], the IC50 lay in the range of 1 to 5 nM.

In turn, `CCSc1cc(C2(Cc3nncn3C)COC2)cc(N2Cc3c(C#N)cc(CN4CCC[C@H](C)C4)cc3C2=O)n1` [Compound 144, 2-[6-(ethylsulfanyl)-4-{3-[(4-methyl-1,2,4-triazol-3-yl)methyl]oxetan-3-yl}pyridin-2-yl]-6-{[(3S)-3-methylpiperidin-1-yl]methyl}-1-oxo-3H-isoindole-4-carbonitrile; trifluoroacetic acid] had an IC50 of 5.01 to 20 nM. Next, `CCSc1cc(C2(Cc3nncn3C)COC2)cc(N2Cc3c(C(N)=O)cc(CN4CCC[C@H](C)C4)cc3C2=O)n1` [Compound 145, 2-[6-(ethylsulfanyl)-4-{3-[(4-methyl-1,2,4-triazol-3-yl)methyl]oxetan-3-yl}pyridin-2-yl]-6-{[(3S)-3-methylpiperidin-1-yl]methyl}-1-oxo-3H-isoindole-4-carboxamide]: 5.01 to 20 nM; `CCNc1cc(C2(Cc3nncn3C)COC2)cc(N2Cc3cc(CN4CCC[C@H](C)C4)sc3C2=O)n1` [Compound 149, 5-[6-(ethylamino)-4-{3-[(4-methyl-1,2,4-triazol-3-yl)methyl]oxetan-3-yl}pyridin-2-yl]-2-{[(3S)-3-methylpiperidin-1-yl]methyl}-4H-thieno[2,3-c]pyrrol-6-one]: 20 to 100 nM. As for `C#CCOCC(c1cc2c(c(C(F)(F)F)c1)CN(c1cccc(C3(c4nncn4C)CC(C)C3)c1)C2=O)N1CCC[C@H](C)C1` (stereo partly drawn) [Compound 151, 6-{1-[(3S)-3-methylpiperidin-1-yl]-2-(prop-2-yn-1-yloxy)ethyl}-2-{3-[(1r,3s)-3-methyl-1-(4-methyl-1,2,4-triazol-3-yl)cyclobutyl]phenyl}-4-(trifluoromethyl)-3H-isoindol-1-one], the figure is 100 to 1000 nM; as for `Cn1cnnc1CC1(c2cc(NCCC#N)nc(N3Cc4c(cc(CN5CCC(O)(C6CC6)CC5)cc4C(F)(F)F)C3=O)c2)COC1` [Compound 155, 3-[(6-{6-[(4-cyclopropyl-4-hydroxypiperidin-1-yl)methyl]-1-oxo-4-(trifluoromethyl)-3H-isoindol-2-yl}-4-{3-[(4-methyl-1,2,4-triazol-3-yl)methyl]oxetan-3-yl}pyridin-2-yl)amino]propanenitrile], 1 to 5 nM; as for `C[C@H](Cc1nncn1C)c1cccc(NC(=O)c2ccc(C=O)c(C3CC3)n2)c1` [Compound 156, 6-cyclopropyl-5-formyl-N-{3-[(2R)-1-(4-methyl-1,2,4-triazol-3-yl)propan-2-yl]phenyl}pyridine-2-carboxamide], 20 to 100 nM. Next, `Cn1cnnc1CC1(c2cc(NCCC#N)nc(N3Cc4c(cc(C=O)cc4C(F)(F)F)C3=O)c2)COC1` [Compound 157, 3-({6-[6-formyl-1-oxo-4-(trifluoromethyl)-3H-isoindol-2-yl]-4-{3-[(4-methyl-1,2,4-triazol-3-yl)methyl]oxetan-3-yl}pyridin-2-yl}amino)propanenitrile]: 20 to 100 nM; `CSc1cc(CN2CCC[C@H](C)C2)cc2c1CN(c1cc(C3(Cc4nncn4C)COC3)cc(NCCN=[N+]=[N-])n1)C2=O` [Compound 158, 2-{6-[(2-azidoethyl)amino]-4-{3-[(4-methyl-1,2,4-triazol-3-yl)methyl]oxetan-3-yl}pyridin-2-yl}-6-{[(3S)-3-methylpiperidin-1-yl]methyl}-4-(methylsulfanyl)-3H-isoindol-1-one; trifluoroacetic acid]: 1 to 5 nM. In turn, `CCSc1cc(C2(Cc3nncn3C)COC2)cc(N2Cc3c(C(C)=O)cc(CN4CCC[C@H](C)C4)cc3C2=O)n1` [Compound 159, 4-acetyl-2-[6-(ethylsulfanyl)-4-{3-[(4-methyl-1,2,4-triazol-3-yl)methyl]oxetan-3-yl}pyridin-2-yl]-6-{[(3S)-3-methylpiperidin-1-yl]methyl}-3H-isoindol-1-one; trifluoroacetic acid] had an IC50 of 20 to 100 nM. Next, `Cn1cnnc1CC1(c2cc(NCCC#N)nc(N3Cc4c(cc(CN5CCC6(CC5)CC6CO)cc4C(F)(F)F)C3=O)c2)COC1` (centres unmarked) [Compound 160, 3-{[6-(6-{[1-(hydroxymethyl)-6-azaspiro[2.5]octan-6-yl]methyl}-1-oxo-4-(trifluoromethyl)-3H-isoindol-2-yl)-4-{3-[(4-methyl-1,2,4-triazol-3-yl)methyl]oxetan-3-yl}pyridin-2-yl]amino}propanenitrile]: 1 to 5 nM. For `Cn1cnnc1CC1(c2cc(NCCC#N)nc(N3Cc4c(cc(CN5C[C@H]6CCC(O)C[C@H]6C5)cc4C(F)(F)F)C3=O)c2)COC1` (stereo partly drawn) [Compound 161, 3-{[6-(6-{[(3aR,7aS)-5-hydroxy-octahydroisoindol-2-yl]methyl}-1-oxo-4-(trifluoromethyl)-3H-isoindol-2-yl)-4-{3-[(4-methyl-1,2,4-triazol-3-yl)methyl]oxetan-3-yl}pyridin-2-yl]amino}propanenitrile; trifluoroacetic acid], the 50% inhibitory concentration (IC50) lay within 1 to 5 nM.
